From ChEMBL document CHEMBL2086254, “Synthesis and identification of novel indolo[2,3-a]pyrimido[5,4-c]carbazoles as a new class of anti-cancer agents” (Eur J Med Chem, 2012)
pIC50: −log10 of the molar value.

Target: Cyclin-dependent kinase 2 (Homo sapiens, UniProt P24941)
Assay: Inhibition of CDK2

A pIC50 of over 7.22 was found for `Cn1c2ccccc2c2c3c(c4c5ccccc5n(CC(O)CO)c4c21)C(=O)NC3=O` (stereo unspecified) in this work.
